# Literature values as cited in US20130309220A1, “COMPOSITIONS FOR TREATING MICROBIAL INFECTIONS” (priority 2012, published 2013).
compound,measurement,setting,value
"CCC(=O)O[C@]1(C(=O)SCF)[C@H](C)C[C@H]2[C@@H]3C[C@H](F)C4=CC(=O)C=C[C@]4(C)[C@@]3(F)[C@@H](O)C[C@@]21C [Fluticasone propionate, S-(fluromethyl)6α,9-difluoro-11β-17-dihydroxy-16α-methyl-3-oxoandrosta-1,4-diene-17β-carbothioate,17-propionate]",solubility in 95% ethanol,95% ethanol,slightly soluble
same,solubility in dimethyl sulfoxide,dimethyl sulfoxide,freely soluble
same,solubility in dimethylformamide,dimethylformamide,freely soluble
same,solubility in methanol,methanol,slightly soluble
same,solubility in water,water,practically insoluble
